Assay results: patent publication US12324843B2, “Compositions and methods for delivery of biomacromolecule agents” (The Regents of the University of Michigan, priority 2015, dated 2025)
Residues, ends and D or L forms follow the SMILES beside them. *: point of attachment. FITC = O=C1OC2(c3ccc(O)cc3Oc3cc(O)ccc32)c2ccc(NC(=S)*)cc21

Experiment: Lymph node draining study (IVIS)
Format: in vivo, C57BL/6 mice
Conditions: 31 nmol s.c. at tail base, after 1 day
Protocol: sHDL-[…](FITC)L was prepared as described above. Female C57BL/6 mice of age 6-8 weeks were purchased from Harlan Laboratories. C57BL/6 mice were subcutaneously injected with free […](FITC)L or sHDL-[…](FITC)L. 24 hours after injection, mice were euthanized by carbon dioxide inhalation and axillary lymph nodes and inguinal lymph nodes were harvested and imaged with IVIS optical imaging system (Caliper Lifesciences).
For lymph node draining studies, C57BL/6 mice were injected with free CSSSIINFBK(FITC)L, sHDL-CSSSIINFBK(FITC)L, free Cho-CpG(Cy5), or sHDL-Cho-CpG(Cy5). After 24 h, inguinal lymph nodes were harvested, and FITC or Cy5 fluorescence signal was measured with IVIS optical imaging system (Caliper Life Sciences).

CC[C@H](C)[C@H](NC(=O)[C@H](CO)NC(=O)[C@H](CO)NC(=O)[C@H](CO)NC(=O)[C@@H](N)CS)C(=O)N[C@H](C(=O)N[C@@H](CC(N)=O)C(=O)N[C@@H](Cc1ccccc1)C(=O)N[C@@H](CCC(=O)O)C(=O)N[C@@H](CCCCNC(=S)Nc1ccc2c(c1)C(=O)OC21c2ccc(O)cc2Oc2cc(O)ccc21)C(=O)N[C@@H](CC(C)C)C(=O)O)[C@@H](C)CC [free CSS-SIINFEK(FITC)L] (H-CSSSIINFEK(FITC)L-OH)
FITC signal in inguinal dLNs: minimal FITC signal in inguinal dLNs
